Laboratory results as given in ChEMBL document CHEMBL1150055, “New Diol Esters Isolated from Cultures of the Dinoflagellates Prorocentrum lima and Prorocentrum concavum” (J Nat Prod, 1992).
Calls of active or inactive are those of the source. No cut-off for these calls is given here.

Assays:
[1] = Inhibition of PP1
[2] = Inhibition of PP2A

Row | Activity [1] | Activity [2] | Structure (SMILES)
1 | inactive | inactive | C=C1[C@@H](O)[C@@H]2O[C@]3(CC[C@H](/C=C/[C@@H](C)[C@@H]4CC(C)=C[C@@]5(O[C@H](C[C@@](C)(O)C(=O)OC)CC[C@H]5O)O4)O3)CC[C@H]2O[C@@H]1[C@@H](O)C[C@H](C)[C@H]1O[C@@]2(CCCCO2)CC[C@H]1C
2 | inactive | inactive | C=C1[C@@H](O)[C@@H]2O[C@]3(CC[C@H](/C=C/[C@@H](C)[C@@H]4CC(C)=C[C@@]5(O[C@H](C[C@@](C)(O)C(=O)OC/C(C)=C/C=C/CO)CC[C@H]5O)O4)O3)CC[C@H]2O[C@@H]1[C@@H](O)C[C@H](C)[C@H]1O[C@@]2(CCCCO2)CC[C@H]1C
3 | inactive | inactive | C=C1[C@@H](O)[C@@H]2O[C@]3(CC[C@H](/C=C/[C@@H](C)[C@@H]4CC(C)=C[C@@]5(O[C@H](C[C@@](C)(O)C(=O)OC/C(C)=C/C=C/CCO)CC[C@H]5O)O4)O3)CC[C@H]2O[C@@H]1[C@@H](O)C[C@H](C)[C@H]1O[C@@]2(CCCCO2)CC[C@H]1C
